Data as given in article PMC4947017 (ACS chemical biology, 2016).

Legend:
[1] = molecular target: T1, neurotensin receptor 1 (NTR1) (Homo sapiens, UniProt P30989); assay: […]-NT radioligand binding to NTR1-U2OS membranes
[2] = molecular target: T1, neurotensin receptor 1 (NTR1); assay: […]-NT radioligand competitive displacement in NTR1-U2OS membranes; type: binding

T1 sequence (P30989 whole entry): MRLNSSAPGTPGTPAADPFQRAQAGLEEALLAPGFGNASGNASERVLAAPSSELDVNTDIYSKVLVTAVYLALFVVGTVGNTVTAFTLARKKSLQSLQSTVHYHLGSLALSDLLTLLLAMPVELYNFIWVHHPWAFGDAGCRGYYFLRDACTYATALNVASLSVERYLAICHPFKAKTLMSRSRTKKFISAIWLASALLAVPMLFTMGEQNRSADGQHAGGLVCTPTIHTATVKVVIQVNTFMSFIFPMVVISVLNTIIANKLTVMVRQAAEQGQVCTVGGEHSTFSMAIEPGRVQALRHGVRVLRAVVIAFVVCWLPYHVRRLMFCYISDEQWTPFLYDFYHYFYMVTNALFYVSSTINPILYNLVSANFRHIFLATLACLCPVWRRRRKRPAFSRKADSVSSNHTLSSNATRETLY

Structure (SMILES)	EC50 [1] [nM]	IC50 [2]
COc1cc2nc(C3CC3)nc(N3CCN(c4ccccc4OC)CC3)c2cc1OC [ML314]	316	
COc1cccc(OC)c1-c1nc(C(=O)N[C@@H](CC(C)C)C(=O)O)cn1-c1ccnc2cc(Cl)ccc12 [ML301]		-4.0 Log(IC50)
